From patent US8134015B2, “Compound inhibiting in vivo phosphorous transport and medicine containing the same” (Kyowa Hakko Kirin Co., Ltd., priority 2003, dated 2012)
pIC50: −log10 of the molar value.

Molecular target: T1, rat NaPi-2b (Rattus norvegicus, UniProt Q9JJ09)
T1 construct: expressed in transfected cells; host or cells: Xenopus oocytes injected with cRNA
T1 sequence (Q9JJ09 1-695): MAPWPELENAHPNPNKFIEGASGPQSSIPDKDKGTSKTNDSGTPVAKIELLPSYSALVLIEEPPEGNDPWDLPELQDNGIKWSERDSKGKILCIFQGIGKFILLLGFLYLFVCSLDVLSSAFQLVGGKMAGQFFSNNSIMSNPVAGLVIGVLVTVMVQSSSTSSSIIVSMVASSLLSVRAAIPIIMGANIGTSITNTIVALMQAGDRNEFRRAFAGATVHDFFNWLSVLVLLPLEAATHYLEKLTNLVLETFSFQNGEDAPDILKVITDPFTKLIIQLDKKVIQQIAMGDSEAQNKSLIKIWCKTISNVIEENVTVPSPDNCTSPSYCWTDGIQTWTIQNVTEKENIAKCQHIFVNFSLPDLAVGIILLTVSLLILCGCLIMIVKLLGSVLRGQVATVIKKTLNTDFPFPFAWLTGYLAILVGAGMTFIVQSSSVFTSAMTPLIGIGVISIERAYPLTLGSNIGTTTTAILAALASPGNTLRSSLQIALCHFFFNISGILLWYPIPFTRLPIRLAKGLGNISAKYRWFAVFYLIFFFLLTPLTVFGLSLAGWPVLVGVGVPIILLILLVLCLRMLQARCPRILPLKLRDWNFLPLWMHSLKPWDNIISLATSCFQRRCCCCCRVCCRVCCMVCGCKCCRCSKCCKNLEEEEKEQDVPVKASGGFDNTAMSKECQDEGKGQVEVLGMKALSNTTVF
Experiment: Sodium-dependent phosphate uptake of Xenopus oocytes which expressed NaPi-2b (32P)
Format: cell-based
Details: Xenopus oocytes expressing rat NaPi-2b, 32P radioactive phosphorus; read-out: IC50 (phosphate uptake inhibitory activity)
How it was run: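 Percent inhibition at 300 μM and 100 μM comes from the same inhibition curve of 32P uptake. Assay used oocytes expressing rat NaPi-2b after 2 days of culture.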

| pIC50 | Compound |
| --- | --- |
| > 5.52 | CCN(CC)CCN(C)Cc1cccc(C(=O)Nc2ccc(I)cc2C(=O)N/N=C/c2ccc(Cl)c(C(F)(F)F)c2)c1 [Compound 477, N-[2-(4-chloro-3-trifluoromethyl-benzylidene-hydrazinocarbonyl)-4-iodo-phenyl]-3-{[(2-diethylamino-ethyl)-methyl-amino]-methyl}-benzamide] |
| 5.44 | Cc1ccc(/C=N/NC(=O)c2c(C)csc2NC(=O)c2cccc(CN3CCC(O)CC3)c2)cc1 [Compound 594, 3-(4-Hydroxy-piperidin-1-ylmethyl)-N-[4-methyl-3-(4-methyl-benzylidene-hydrazinocarbonyl)-thiophen-2-yl]-benzamide] |
| 6.21 | COc1ccc(/C=N/NC(=O)c2cc(Cl)ccc2NC(=O)c2ccc(OC)c(OC)c2)cc1Br [Compound 98, N-[2-(3-Bromo-4-methoxy-benzylidene-hydrazinocarbonyl)-4-chloro-phenyl]-3,4-dimethoxy-benzamide] |
| 4.77 | Cc1ccc(/C=N/NC(=O)c2cc(Br)ccc2NC(=O)c2ccc(CN(C)CC(O)c3ccc(O)cc3)cc2)cc1C (stereo not drawn) [Compound 724, N-[4-Bromo-2-(3,4-dimethyl-benzylidene-hydrazinocarbonyl)-phenyl]-4-({[2-hydroxy-2-(4-hydroxy-phenyl)-ethyl]-methyl-amino}-methyl)-benzamide] |
| 4.63 | CN(C)CCn1nnnc1SCc1cccc(C(=O)Nc2ccc(Cl)cc2C(=O)N/N=C/c2cccc(O)c2)c1 [Compound 470, N-[4-Chloro-2-(3-hydroxy-benzylidene-hydrazinocarbonyl)-phenyl]-3-[1-(2-dimethylamino-ethyl)-1H-tetrazol-5-ylsulfanylmethyl]-benzamide] |
| 5.14 | O=C(Nc1ccc(Br)cc1C(=O)N/N=C/c1cccc(F)c1)c1ccc(F)cc1 [Compound 105, N-[4-Bromo-2-(3-fluoro-benzylidene-hydrazinocarbonyl)-phenyl]-4-fluoro-benzamide] |
| 5.47 | CCN(CC)CCN(C)Cc1cccc(C(=O)Nc2ccc(OCCCN3CCCCC3)cc2C(=O)N/N=C/c2ccc(Cl)c(C(F)(F)F)c2)c1 [Compound 1038, N-[2-(4-Chloro-3-trifluoromethyl-benzylidene-hydrazinocarbonyl)-4-(3-piperidin-1-yl-propoxy)-phenyl]-3-{[(2-diethylamino-ethyl)-methyl-amino]-methyl}-benzamide] |
| 5.21 | Cc1csc(NC(=O)c2cccc(CN(CC(C)O)CC(C)O)c2)c1C(=O)N/N=C/c1cccc(F)c1 (stereo not drawn) [Compound 590, 3-{[Bis-(2-hydroxy-propyl)-amino]-methyl}-N-[3-(3-fluoro-benzylidene-hydrazinocarbonyl)-4-methyl-thiophen-2-yl]-benzamide] |
| 5.05 | COCCOc1cc(NC(=O)c2cccc(CSCC(O)CO)c2)c(C(=O)N/N=C/c2cccc(F)c2)cc1OCCOC (stereo not drawn) [Compound 1013, 3-(2,3-Dihydroxy-propylsulfanylmethyl)-N-[2-(3-fluoro-benzylidene-hydrazinocarbonyl)-4,5-bis-(2-methoxy-ethoxy)-phenyl]-benzamide] |
| 4.99 | Cc1ccc(/C=N/NC(=O)c2cc(OCCCN3CCCCC3)ccc2NC(=O)c2cccc(CSCCO)c2)cc1C [Compound 1041, N-[2-(3,4-Dimethyl-benzylidene-hydrazinocarbonyl)-4-(3-piperidin-1-yl-propoxy)-phenyl]-3-(2-hydroxy-ethylsulfanylmethyl)-benzamide] |
| 5.20 | O=C(Nc1ccc(Cl)cc1C(=O)N/N=C/c1ccc(Cl)c(C(F)(F)F)c1)c1cnc2ccccc2n1 [Compound 1006, Quinoxaline-2-carboxylic acid[4-chloro-2-(4-chloro-3-trifluoromethyl-benzylidene-hydrazinocarbonyl)-phenyl]-amide] |
| 5.72 | Cc1cc(C(=O)Nc2ccccc2C(=O)N/N=C/c2ccc(F)cc2)c(C)o1 [Compound 515, 2,5-Dimethyl-furan-3-carboxylic acid [2-(4-fluoro-benzylidene-hydrazinocarbonyl)-phenyl]-amide] |
